This note sets out measurements from ChEMBL document CHEMBL2311501, “Discovery and preliminary structure-activity relationship analysis of 1,14-sperminediphenylacetamides as potent and selective antimalarial lead compounds” (Bioorg Med Chem Lett, 2013).

In data set [1] the test system is L6. In words: Cytotoxicity against rat L6 cells after 72 hrs by Alamar blue assay. The class given is cell-based. The settings on record: L6, 72 h. (Resazurin is reduced to fluorescent resorufin, in cell work by metabolically active cells.)
The next data set concerns Plasmodium falciparum. The data set is described as follows: Antiprotozoal activity against erythrocytic stages of Plasmodium falciparum K1 by [3H]hypoxanthine incorporation assay. It counts as functional, organism-based.
Data set [2] has as its system Trypanosoma brucei rhodesiense. In words: Antiprotozoal activity against Trypanosoma brucei rhodesiense STIB 900 after 72 hrs by Alamar blue assay. It counts as functional, organism-based. The note with it: STIB 900, 72 h.
The test system of the next data set is Leishmania donovani. In words: Antiprotozoal activity against amastigote/ axenic stage of Leishmania donovani MHOM-ET-67/L82 after 72 hrs by Alamar blue assay. It counts as functional, organism-based. The note with it: MHOM-ET-67/L82, 72 h.
A further data set concerns Trypanosoma cruzi. The data set is described as follows: Antiprotozoal activity against Trypanosoma cruzi Tulahuen C4 amastigotes after 96 hrs. It counts as functional, organism-based. The settings on record: Tulahuen C4, 96 h.
For data set [3], the system named is L6. In words: Cytotoxicity against rat L6 cells at 10 uM after 72 hrs by Alamar blue assay. The class given is cell-based. The note with it: l6, 72 h.

Bounds are passed on as bounds.

A word on the IC50: it is the concentration needed to halve the response being measured. For `O=C(Cc1ccccc1)NCCCNCCCCNCCCNC(=O)C(F)(F)F`, the results for the IC50 in the data set on L6 [1] and in the data set with Plasmodium falciparum were 110 µM and 8 µM, respectively.

As for `O=C(Cc1ccc(O)c(O)c1)NCCCCNC(=O)Cc1ccc(O)c(O)c1`, the IC50 in the data set on L6 [1] is 130 µM; in data set [2], 3.3 µM; in the data set on Leishmania donovani, above 230 µM; in the data set with Plasmodium falciparum it was above 13 µM; in the data set with Trypanosoma cruzi, above 230 µM.

Take `COc1cc(CC(=O)NCCCNCCCCNCCCNC(=O)Cc2ccc(O)c(OC)c2)ccc1O`: in the data set on L6 [3], the Activity result is “Non-toxic”. Further, the IC50 in the data set on L6 [1] is above 120 µM; in data set [2] it was 78 µM; with Leishmania donovani it was above 120 µM; in the data set on Plasmodium falciparum, 0.89 µM; in the data set on Trypanosoma cruzi, above 120 µM.

With `COc1cc(CC(=O)NCCCCNCCCNC(=O)Cc2ccc(O)c(OC)c2)ccc1O`, the IC50 in the data set on L6 [1] is above 150 µM; in data set [2], 150 µM; in the data set on Leishmania donovani, above 150 µM; in the data set on Plasmodium falciparum, above 8.5 µM; in the data set with Trypanosoma cruzi, above 150 µM.

As for `O=C(Cc1ccc(O)c(O)c1)NCCCOCCOCCOCCCNC(=O)Cc1ccc(O)c(O)c1`, the IC50 in the data set on L6 [1] was 96 µM; in data set [2], 5.2 µM; with Leishmania donovani it was above 170 µM; with Plasmodium falciparum, above 9.6 µM; in the data set on Trypanosoma cruzi it was above 170 µM.

Take `COc1cc([C@@H]2c3cc4c(cc3[C@H](O)[C@H]3COC(=O)[C@H]23)OCO4)cc(OC)c1OC` [PODOFILOX]: in the data set on L6 [1], the 50% inhibitory concentration (IC50) stood at 0.019 µM. This counts as double-digit nanomolar.

As to `O=C(Cc1ccccc1)NCCCCNC(=O)Cc1ccccc1`, the IC50 is above 280 µM in the data set with L6 [1]; 110 µM in data set [2]; above 280 µM with Leishmania donovani; above 15 µM with Plasmodium falciparum; above 280 µM with Trypanosoma cruzi.

For the compound `COc1cc(CC(=O)NCCN2CCOCC2)ccc1O`, the IC50 with L6 [1] was 210 µM; in data set [2] it was 150 µM; with Leishmania donovani it was above 220 µM; in the data set on Plasmodium falciparum it was above 12 µM; with Trypanosoma cruzi it was above 220 µM.

Take `O=C(Cc1cccc(O)c1)NCCCNCCNC(=O)Cc1cccc(O)c1`: the IC50 was above 180 µM with L6 [1]; 120 µM in data set [2]; above 180 µM with Leishmania donovani; above 10 µM in the data set on Plasmodium falciparum; above 180 µM with Trypanosoma cruzi.

Regarding `O=C(Cc1cccc(O)c1)NCCCNCCCCNCCCNC(=O)Cc1cccc(O)c1`, the Activity entry in the data set with L6 [3] is listed as “Non-toxic”. The IC50 in the data set with L6 [1] was above 130 µM; in data set [2], 87 µM; in the data set on Leishmania donovani it was above 130 µM; in the data set on Plasmodium falciparum it was 0.17 µM; with Trypanosoma cruzi, above 130 µM.

As to `COc1cc(CC(=O)NCCCOCCOCCOCCCNC(=O)Cc2ccc(O)c(OC)c2)ccc1O`, the IC50 was above 160 µM in the data set on L6 [1]; 110 µM in data set [2]; 150 µM with Leishmania donovani; above 9.1 µM in the data set on Plasmodium falciparum; above 160 µM in the data set with Trypanosoma cruzi.

On to `O=C(Cc1ccccc1O)NCCCNCCCCNCCCNC(=O)Cc1ccccc1O`, for which the Activity entry in the data set on L6 [3] was “Non-toxic”. Also, the IC50 in the data set with L6 [1] was above 130 µM; in data set [2] it was 51 µM; with Leishmania donovani it was 110 µM; with Plasmodium falciparum it was 0.0086 µM; with Trypanosoma cruzi, above 130 µM.

For the compound `NCCCNCCCCNCCCNC(=O)Cc1ccccc1`, the IC50 in the data set with L6 [1] amounted to 94 µM; in the data set on Plasmodium falciparum, 35 µM.

With `O=C(Cc1ccc(O)cc1)NCCCCNCCCNC(=O)Cc1ccc(O)cc1`, the IC50 in the data set on L6 [1] was above 170 µM; in data set [2], 120 µM; with Leishmania donovani it was above 170 µM; in the data set on Plasmodium falciparum, 3.6 µM; in the data set on Trypanosoma cruzi, above 170 µM.

With `O=C(Cc1ccc(O)c(O)c1)NCCCNCCCCNCCCNC(=O)Cc1ccc(O)c(O)c1`, the Activity entry in the data set with L6 [3] is reported as “Non-toxic”. Besides, the IC50 in the data set with L6 [1] was 85 µM; in data set [2] it was 3.2 µM; with Leishmania donovani, above 120 µM; in the data set on Plasmodium falciparum, 4.8 µM; in the data set with Trypanosoma cruzi it was above 120 µM.

With `COc1cc(CC(=O)NCCCNCCNC(=O)Cc2ccc(O)c(OC)c2)ccc1O`, the IC50 in the data set on L6 [1] was above 160 µM; in data set [2] it was 110 µM; in the data set on Leishmania donovani it was above 160 µM; in the data set on Plasmodium falciparum, above 8.9 µM; in the data set on Trypanosoma cruzi it was above 160 µM.

Turning to `O=C(Cc1ccccc1O)NCCCNCCNCCCNC(=O)Cc1ccccc1O`, the Activity result in the data set with L6 [3] is listed as “Non-toxic”. Moreover, the IC50 in the data set with L6 [1] was above 130 µM; in data set [2], 49 µM; in the data set on Leishmania donovani, above 130 µM; with Plasmodium falciparum, 0.61 µM; with Trypanosoma cruzi, above 130 µM.

As for `O=C(Cc1ccc(O)c(O)c1)NCCCCNCCCNC(=O)Cc1ccc(O)c(O)c1`, in the data set with L6 [3], the Activity result was “Non-toxic”. Further, the concentration for half-maximal inhibition (IC50) in the data set on L6 [1] was 97 µM; in data set [2] it was 5.9 µM; in the data set with Leishmania donovani, above 160 µM; in the data set with Plasmodium falciparum, 7.9 µM; with Trypanosoma cruzi, above 160 µM.

For `COc1ccc(OC)c(CC(=O)NCCCNCCCCNCCCNC(=O)Cc2cc(OC)ccc2OC)c1`, in the data set on L6 [3], the Activity result is “Non-toxic”. Moreover, the IC50 in the data set on L6 [1] was 88 µM; in data set [2], 38 µM; in the data set on Leishmania donovani, 35 µM; in the data set on Plasmodium falciparum, 0.019 µM; in the data set with Trypanosoma cruzi it was 31 µM.

For the compound `COc1cc(CC(=O)NCCCNCCNCCCNC(=O)Cc2ccc(O)c(OC)c2)ccc1O`, the IC50 is above 120 µM in the data set on L6 [1]; 120 µM in data set [2]; above 120 µM with Leishmania donovani; above 6.8 µM with Plasmodium falciparum; above 120 µM in the data set on Trypanosoma cruzi.

As for `O=C(Cc1ccc(O)cc1)NCCCNCCCCNCCCNC(=O)Cc1ccc(O)cc1`, the Activity result in the data set with L6 [3] is recorded as “Non-toxic”. Also, the IC50 is 130 µM in the data set on L6 [1]; 86 µM in data set [2]; above 130 µM with Leishmania donovani; 0.14 µM in the data set on Plasmodium falciparum; above 130 µM with Trypanosoma cruzi.

As for `O=C(Cc1ccccc1)NCCCNCCCCNCCCNC(=O)Cc1ccccc1`, in the data set on L6 [3], the Activity entry was “Non-toxic”. Moreover, the half-inhibitory concentration (IC50) with L6 [1] is above 140 µM; in data set [2], 96 µM; in the data set on Leishmania donovani, 90 µM; with Plasmodium falciparum, 0.14 µM; with Trypanosoma cruzi it was above 140 µM.

In the case of `O=C(Cc1ccccc1)NCCCOCCOCCOCCCNC(=O)Cc1ccccc1`, the IC50 is above 200 µM in the data set with L6 [1]; 63 µM in data set [2]; above 200 µM in the data set with Leishmania donovani; above 11 µM with Plasmodium falciparum; above 200 µM with Trypanosoma cruzi.

`O=C(Cc1ccc(O)c(O)c1)NCCCNCCNC(=O)Cc1ccc(O)c(O)c1`: in the data set on L6 [3], the Activity entry is given as “Non-toxic”. In addition, the IC50 in the data set with L6 [1] is 140 µM; in data set [2], 7.5 µM; in the data set with Leishmania donovani, above 170 µM; in the data set with Plasmodium falciparum, above 9.4 µM; in the data set with Trypanosoma cruzi it was above 170 µM.

For the compound `COc1cc(CC(=O)NCCCCNC(=O)Cc2ccc(O)c(OC)c2)ccc1O`, the IC50 is above 220 µM in the data set on L6 [1]; 210 µM in data set [2]; above 220 µM in the data set on Leishmania donovani; above 12 µM with Plasmodium falciparum; above 220 µM in the data set with Trypanosoma cruzi.

`COc1cc(CC(=O)NCCN(C)C)ccc1O`: the half-inhibitory concentration (IC50) was above 250 µM in the data set with L6 [1]; 170 µM in data set [2]; above 250 µM in the data set on Leishmania donovani; above 14 µM with Plasmodium falciparum; above 250 µM with Trypanosoma cruzi.
